Laboratory results: patent US20260226102A1, “PEPTIDES FOR INCRETIN SYNTHESIS” (priority 2022, published 2026)
Where a name gives a salt, the structure may show the parent alone. Read-outs that look alike come from different tables or passages of the source. Square brackets hold non-standard residues; d marks the D form. Peptide text beside a SMILES is read from it. * marks the point of attachment. Boc = CC(C)(C)OC(=O)*; Aib = CC(C)(N)C(=O)O; OcHex = C1CCC(O*)CC1; OBn = c1ccc(CO*)cc1; OtBu = CC(C)(C)O*; tBu = CC(C)(C)*; OAll = C=CCO*

Legend:
[1] = standing 24 hours or more
Protocol: Peptide samples were screened for crystal stability in several organic solvents. […] The following organic solvents were used for the study: Acetone, ACN, MeOH, EtOH, IPA, BuOH, EtOAc, MTBE, THF, MEK, toluene, and water.
30 mg samples of each peptide tetramer were dispensed into sample vials using an automated dispenser (one vial of each peptide for testing with each solvent). […] Samples were then allowed to stand for 24 hours or more.

[2] = Physical stability of crystalline solid form on isolation/drying (XRPD); type: physicochemical; conditions: for physical stability of the crystalline form: during isolation or upon air-drying/drying
[3] = Dynamic vapor sorption (DVS) analysis of hygroscopicity; type: physicochemical
Excerpt: Crystallization of Y-Aib-E-G helps to reject impurities from the crude material. […] Crystallization of the crude Y-Aib-E-G spiked with 1% dimer (impurity) yielded a crystalline Y-Aib-E-G with almost complete rejection of the dimer. Crystallization also improves physical properties, for example, the hygroscopicity.

| SMILES | Crystal Formed ([1]; solvent ACN) | Crystal Formed ([1]; solvent Acetone) | Crystal Formed ([1]; solvent BuOH) | Crystal Formed ([1]; solvent EtOAc) | Crystal Formed ([1]; solvent EtOH) | Crystal Formed ([1]; solvent H2O) | Crystal Formed ([1]; solvent IPA) | Crystal Formed ([1]; solvent MEK) | Crystal Formed ([1]; solvent MTBE) | Crystal Formed ([1]; solvent MeOH) | Crystal Formed ([1]; solvent THF) | Crystal Formed ([1]; solvent toluene) | physical stability of the crystalline form [2] | physical stability of the crystalline form after vacuum drying ([2]; vacuum drying at 32-33° C. for 1 day) | wt % gain in sorption from 0% to 95% RH [3] [wt %] |
| --- | --- | --- | --- | --- | --- | --- | --- | --- | --- | --- | --- | --- | --- | --- | --- |
| C=CCOC(=O)CCC(NC(=O)C(C)(C)NC(=O)C(Cc1ccc(OC(C)(C)C)cc1)NC(=O)OC(C)(C)C)C(=O)NCC(=O)O (stereo not drawn) [Boc—Y(tBu)-Aib-E(All)-G-COOH, Boc-Y(tBu)-Aib-E(All)-G-COOH] (Boc-Y(tBu)[Aib]E(OAll)G-OH; configuration not given here) | No | No | No | Yes | No | No | No | Yes | Yes | No | No | No | – | – | – |
| CC(C)(C)OC(=O)N[C@@H](Cc1ccc(OC(C)(C)C)cc1)C(=O)NC(C)(C)C(=O)N[C@@H](CCC(=O)OCc1ccccc1)C(=O)NCC(=O)O [Boc—Y(tBu)-Aib-E(Bzl)-G-COOH, Boc-Y(tBu)-Aib-E(Bzl)-G-COOH] (Boc-Y(tBu)[Aib]E(OBn)G-OH) | Yes | Yes | No | Yes | No | No | No | Yes | Yes | No | Yes | Yes | – | – | – |
| COC(=O)CCC(NC(=O)C(C)(C)NC(=O)C(Cc1ccc(OC(C)(C)C)cc1)NC(=O)OC(C)(C)C)C(=O)NCC(=O)O (stereo not drawn) [Boc—Y(tBu)-Aib-E(Me)-G-COOH, Boc-Y(tBu)-Aib-E(Me)-G-COOH] (Boc-Y(tBu)[Aib]E(OMe)G-OH; configuration not given here) | No | No | No | No | No | No | No | No | Yes | No | No | No | – | – | – |
| CC(C)(C)OC(=O)NC(Cc1ccc(OC(C)(C)C)cc1)C(=O)NC(C)(C)C(=O)NC(CCC(=O)OC1CCCCC1)C(=O)NCC(=O)O (stereo not drawn) [Boc—Y(tBu)-Aib-E(cHx)-G-COOH, Boc-Y(tBu)-Aib-E(cHx)-G-COOH] (Boc-Y(tBu)[Aib]E(OcHex)G-OH; configuration not given here) | No | No | No | No | No | No | No | No | No | No | No | No | – | – | – |
| CC(C)(C)OC[C@H](NC(=O)[C@H](COC(C)(C)C)NC(=O)[C@@H]1CCCN1C(=O)CN)C(=O)NCC(N)=O [G-P-S-S-G-NH2 Form A, Gly-Pro-Ser(tBu)-Ser(tBu)-Gly-NH2] (H-GPS(tBu)S(tBu)G-NH2) | – | – | – | – | – | – | – | – | – | – | – | – | physically is not stable and converts to Form B easily | – | – |
| CC(C)(C)OC[C@H](NC(=O)[C@H](COC(C)(C)C)NC(=O)[C@@H]1CCCN1C(=O)CN)C(=O)NCC(N)=O [G-P-S-S-G-NH2 Form B, Gly-Pro-Ser(tBu)-Ser(tBu)-Gly-NH2] (H-GPS(tBu)S(tBu)G-NH2) | – | – | – | – | – | – | – | – | – | – | – | – | – | remained as Form B | – |
| CC(C)(C)OC(=O)NC(Cc1cn(-c2ccc([N+](=O)[O-])cc2[N+](=O)[O-])cn1)C(=O)NC(C)(C)C(=O)NC(CCC(=O)NC(c1ccccc1)(c1ccccc1)c1ccccc1)C(=O)NCC(=O)O (stereo not drawn) [H(DNP)-Aib-Q-G Form A, (Boc)-His(dnp)-Aib-Gln(trt)-Gly] | – | – | – | – | – | – | – | – | – | – | – | – | converts to H(DNP)-Aib-Q-G Form C easily | – | – |
| C[C@H](N)C(=O)N1CCC[C@H]1C(=O)N1CCC[C@H]1C(=O)N1CCC[C@H]1C(=O)N[C@@H](COC(C)(C)C)C(N)=O [H-A-P-P-P-S-NH2 HCl Form A, H-Ala-Pro-Pro-Pro-Ser(tBu)-NH2] (H-APPPS(tBu)-NH2) | – | – | – | – | – | – | – | – | – | – | – | – | loses crystallinity upon isolation/drying | – | – |
| CC(C)(C)OC(=O)CC[C@H](NC(=O)C(C)(C)NC(=O)[C@H](Cc1ccc(OC(C)(C)C)cc1)NC(=O)OC(C)(C)C)C(=O)NCC(=O)O [Y-Aib-E-G Form B, Boc-l-Tyr (tBu)-Aib-Glu(OtBu)-Gly-OH] (Boc-Y(tBu)[Aib]E(OtBu)G-OH) | – | – | – | – | – | – | – | – | – | – | – | – | – | – | 1.4 |
| CC(C)(C)OC(=O)CC[C@H](NC(=O)C(C)(C)NC(=O)[C@H](Cc1ccc(OC(C)(C)C)cc1)NC(=O)OC(C)(C)C)C(=O)NCC(=O)O [amorphous Y-Aib-E-G, Boc-l-Tyr (tBu)-Aib-Glu(OtBu)-Gly-OH] (Boc-Y(tBu)[Aib]E(OtBu)G-OH) | – | – | – | – | – | – | – | – | – | – | – | – | – | – | 4.1 |
